{"source": "paper PMC10006169", "about": "“A phase I trial of LXS196, a protein kinase C (PKC) inhibitor, for metastatic uveal melanoma” (British Journal of Cancer, 2023)", "test_system": "patients with MUM", "experiment": "Adverse events suspected to be study drug related (NCI-CTCAE v4.03)", "format": "in vivo, human", "procedure": "Routine safety assessments, including laboratory assessments, physical examinations, vital signs and electrocardiograms (ECGs), were conducted at regular intervals throughout the study and more frequently as needed following patient assessment by the treating physician. Adverse events (AEs) were assessed continuously according to the National Cancer Institute Common Terminology Criteria for Adverse Events (NCI-CTCAE) v4.03.", "data": [{"smiles": "CC1(N)CCN(c2cccnc2NC(=O)c2nc(-c3ncccc3C(F)(F)F)cnc2N)CC1", "note": "[LXS196]", "values": [{"measurement": "ALT increased, all grades", "setting": "100 mg QD", "result": "0 n (%)"}, {"measurement": "ALT increased, grade ≥3", "setting": "100 mg QD", "result": "0 n (%)"}, {"measurement": "AST increased, all grades", "setting": "100 mg QD", "result": "0 n (%)"}, {"measurement": "AST increased, grade ≥3", "setting": "100 mg QD", "result": "0 n (%)"}, {"measurement": "Asthenia, all grades", "setting": "100 mg QD", "result": "0 n (%)"}, {"measurement": "Asthenia, grade ≥3", "setting": "100 mg QD", "result": "0 n (%)"}, {"measurement": "Blood creatinine increased, all grades", "setting": "100 mg QD", "result": "0 n (%)"}, {"measurement": "Blood creatinine increased, grade ≥3", "setting": "100 mg QD", "result": "0 n (%)"}, {"measurement": "Constipation, all grades", "setting": "100 mg QD", "result": "1 (33.3) n (%)"}, {"measurement": "Constipation, grade ≥3", "setting": "100 mg QD", "result": "0 n (%)"}, {"measurement": "Diarrhoea, all grades", "setting": "100 mg QD", "result": "1 (33.3) n (%)"}, {"measurement": "Diarrhoea, grade ≥3", "setting": "100 mg QD", "result": "0 n (%)"}, {"measurement": "Dry skin, all grades", "setting": "100 mg QD", "result": "0 n (%)"}, {"measurement": "Dry skin, grade ≥3", "setting": "100 mg QD", "result": "0 n (%)"}, {"measurement": "Fatigue, all grades", "setting": "100 mg QD", "result": "0 n (%)"}, {"measurement": "Fatigue, grade ≥3", "setting": "100 mg QD", "result": "0 n (%)"}, {"measurement": "Hypotension, all grades", "setting": "100 mg QD", "result": "0 n (%)"}, {"measurement": "Hypotension, grade ≥3", "setting": "100 mg QD", "result": "0 n (%)"}, {"measurement": "Nausea, all grades", "setting": "100 mg QD", "result": "2 (66.7) n (%)"}, {"measurement": "Nausea, grade ≥3", "setting": "100 mg QD", "result": "0 n (%)"}, {"measurement": "Patients with ≥1 AE, all grades", "setting": "100 mg QD", "result": "2 (66.7) n (%)"}, {"measurement": "Patients with ≥1 AE, grade ≥3", "setting": "100 mg QD", "result": "0 n (%)"}, {"measurement": "Rash, all grades", "setting": "100 mg QD", "result": "0 n (%)"}, {"measurement": "Rash, grade ≥3", "setting": "100 mg QD", "result": "0 n (%)"}, {"measurement": "Vomiting, all grades", "setting": "100 mg QD", "result": "0 n (%)"}, {"measurement": "Vomiting, grade ≥3", "setting": "100 mg QD", "result": "0 n (%)"}, {"measurement": "ALT increased, all grades", "setting": "200 mg QD", "result": "0 n (%)"}, {"measurement": "ALT increased, grade ≥3", "setting": "200 mg QD", "result": "0 n (%)"}, {"measurement": "AST increased, all grades", "setting": "200 mg QD", "result": "0 n (%)"}, {"measurement": "AST increased, grade ≥3", "setting": "200 mg QD", "result": "0 n (%)"}, {"measurement": "Asthenia, all grades", "setting": "200 mg QD", "result": "1 (25.0) n (%)"}, {"measurement": "Asthenia, grade ≥3", "setting": "200 mg QD", "result": "0 n (%)"}, {"measurement": "Blood creatinine increased, all grades", "setting": "200 mg QD", "result": "1 (25.0) n (%)"}, {"measurement": "Blood creatinine increased, grade ≥3", "setting": "200 mg QD", "result": "0 n (%)"}, {"measurement": "Constipation, all grades", "setting": "200 mg QD", "result": "2 (50.0) n (%)"}, {"measurement": "Constipation, grade ≥3", "setting": "200 mg QD", "result": "0 n (%)"}, {"measurement": "Diarrhoea, all grades", "setting": "200 mg QD", "result": "1 (25.0) n (%)"}, {"measurement": "Diarrhoea, grade ≥3", "setting": "200 mg QD", "result": "0 n (%)"}, {"measurement": "Dry skin, all grades", "setting": "200 mg QD", "result": "0 n (%)"}, {"measurement": "Dry skin, grade ≥3", "setting": "200 mg QD", "result": "0 n (%)"}, {"measurement": "Fatigue, all grades", "setting": "200 mg QD", "result": "0 n (%)"}, {"measurement": "Fatigue, grade ≥3", "setting": "200 mg QD", "result": "0 n (%)"}, {"measurement": "Hypotension, all grades", "setting": "200 mg QD", "result": "0 n (%)"}, {"measurement": "Hypotension, grade ≥3", "setting": "200 mg QD", "result": "0 n (%)"}, {"measurement": "Nausea, all grades", "setting": "200 mg QD", "result": "2 (50.0) n (%)"}, {"measurement": "Nausea, grade ≥3", "setting": "200 mg QD", "result": "1 (25.0) n (%)"}, {"measurement": "Patients with ≥1 AE, all grades", "setting": "200 mg QD", "result": "4 (100) n (%)"}, {"measurement": "Patients with ≥1 AE, grade ≥3", "setting": "200 mg QD", "result": "2 (50.0) n (%)"}, {"measurement": "Rash, all grades", "setting": "200 mg QD", "result": "0 n (%)"}, {"measurement": "Rash, grade ≥3", "setting": "200 mg QD", "result": "0 n (%)"}, {"measurement": "Vomiting, all grades", "setting": "200 mg QD", "result": "2 (50.0) n (%)"}, {"measurement": "Vomiting, grade ≥3", "setting": "200 mg QD", "result": "1 (25.0) n (%)"}, {"measurement": "ALT increased, all grades", "setting": "300 mg BID (RDE)", "result": "5 (27.8) n (%)"}, {"measurement": "ALT increased, grade ≥3", "setting": "300 mg BID (RDE)", "result": "1 (5.6) n (%)"}, {"measurement": "AST increased, all grades", "setting": "300 mg BID (RDE)", "result": "3 (16.7) n (%)"}, {"measurement": "AST increased, grade ≥3", "setting": "300 mg BID (RDE)", "result": "1 (5.6) n (%)"}, {"measurement": "Asthenia, all grades", "setting": "300 mg BID (RDE)", "result": "4 (22.2) n (%)"}, {"measurement": "Asthenia, grade ≥3", "setting": "300 mg BID (RDE)", "result": "0 n (%)"}, {"measurement": "Blood creatinine increased, all grades", "setting": "300 mg BID (RDE)", "result": "2 (11.1) n (%)"}, {"measurement": "Blood creatinine increased, grade ≥3", "setting": "300 mg BID (RDE)", "result": "0 n (%)"}, {"measurement": "Constipation, all grades", "setting": "300 mg BID (RDE)", "result": "1 (5.6) n (%)"}, {"measurement": "Constipation, grade ≥3", "setting": "300 mg BID (RDE)", "result": "0 n (%)"}, {"measurement": "Diarrhoea, all grades", "setting": "300 mg BID (RDE)", "result": "11 (61.1) n (%)"}, {"measurement": "Diarrhoea, grade ≥3", "setting": "300 mg BID (RDE)", "result": "1 (5.6) n (%)"}, {"measurement": "Dry skin, all grades", "setting": "300 mg BID (RDE)", "result": "4 (22.2) n (%)"}, {"measurement": "Dry skin, grade ≥3", "setting": "300 mg BID (RDE)", "result": "0 n (%)"}, {"measurement": "Fatigue, all grades", "setting": "300 mg BID (RDE)", "result": "3 (16.7) n (%)"}, {"measurement": "Fatigue, grade ≥3", "setting": "300 mg BID (RDE)", "result": "0 n (%)"}, {"measurement": "Hypotension, all grades", "setting": "300 mg BID (RDE)", "result": "3 (16.7) n (%)"}, {"measurement": "Hypotension, grade ≥3", "setting": "300 mg BID (RDE)", "result": "0 n (%)"}, {"measurement": "Nausea, all grades", "setting": "300 mg BID (RDE)", "result": "14 (77.8) n (%)"}, {"measurement": "Nausea, grade ≥3", "setting": "300 mg BID (RDE)", "result": "0 n (%)"}, {"measurement": "Patients with ≥1 AE, all grades", "setting": "300 mg BID (RDE)", "result": "17 (94.4) n (%)"}, {"measurement": "Patients with ≥1 AE, grade ≥3", "setting": "300 mg BID (RDE)", "result": "2 (11.1) n (%)"}, {"measurement": "Rash, all grades", "setting": "300 mg BID (RDE)", "result": "4 (22.2) n (%)"}, {"measurement": "Rash, grade ≥3", "setting": "300 mg BID (RDE)", "result": "0 n (%)"}, {"measurement": "Vomiting, all grades", "setting": "300 mg BID (RDE)", "result": "7 (38.9) n (%)"}, {"measurement": "Vomiting, grade ≥3", "setting": "300 mg BID (RDE)", "result": "0 n (%)"}, {"measurement": "ALT increased, all grades", "setting": "300 mg QD", "result": "3 (20.0) n (%)"}, {"measurement": "ALT increased, grade ≥3", "setting": "300 mg QD", "result": "1 (6.7) n (%)"}, {"measurement": "AST increased, all grades", "setting": "300 mg QD", "result": "1 (6.7) n (%)"}, {"measurement": "AST increased, grade ≥3", "setting": "300 mg QD", "result": "1 (6.7) n (%)"}, {"measurement": "Asthenia, all grades", "setting": "300 mg QD", "result": "3 (20.0) n (%)"}, {"measurement": "Asthenia, grade ≥3", "setting": "300 mg QD", "result": "0 n (%)"}, {"measurement": "Blood creatinine increased, all grades", "setting": "300 mg QD", "result": "1 (6.7) n (%)"}, {"measurement": "Blood creatinine increased, grade ≥3", "setting": "300 mg QD", "result": "0 n (%)"}, {"measurement": "Constipation, all grades", "setting": "300 mg QD", "result": "1 (6.7) n (%)"}, {"measurement": "Constipation, grade ≥3", "setting": "300 mg QD", "result": "0 n (%)"}, {"measurement": "Diarrhoea, all grades", "setting": "300 mg QD", "result": "4 (26.7) n (%)"}, {"measurement": "Diarrhoea, grade ≥3", "setting": "300 mg QD", "result": "0 n (%)"}, {"measurement": "Dry skin, all grades", "setting": "300 mg QD", "result": "1 (6.7) n (%)"}, {"measurement": "Dry skin, grade ≥3", "setting": "300 mg QD", "result": "0 n (%)"}, {"measurement": "Fatigue, all grades", "setting": "300 mg QD", "result": "7 (46.7) n (%)"}, {"measurement": "Fatigue, grade ≥3", "setting": "300 mg QD", "result": "0 n (%)"}, {"measurement": "Hypotension, all grades", "setting": "300 mg QD", "result": "1 (6.7) n (%)"}, {"measurement": "Hypotension, grade ≥3", "setting": "300 mg QD", "result": "0 n (%)"}, {"measurement": "Nausea, all grades", "setting": "300 mg QD", "result": "9 (60.0) n (%)"}]}]}
